Data taken from PMC5003625 (Journal of medicinal chemistry, 2016).

Key:
EZH2 = details: cited from earlier work; for selectivity for EZH2 over EZH1: reported inhibitors
[1] = target: EZH1 pentameric complex (EZH1:EED:SUZ12:RBBP4:AEBP2) (Homo sapiens, UniProt Q92800); test: Methyltransferase activity assay; assay type: biochemical
[2] = target: EZH2 trimeric complex (EZH2:EED:SUZ12) (Homo sapiens, UniProt Q15910); test: Methyltransferase activity assay; assay type: biochemical; details: for fold loss of potency for EZH2: relative to the parent compound of the sentence (5, 24 or 53)
EZH2 trimeric complex (EZH2:EED:SUZ12), sequence (Q15910 whole entry): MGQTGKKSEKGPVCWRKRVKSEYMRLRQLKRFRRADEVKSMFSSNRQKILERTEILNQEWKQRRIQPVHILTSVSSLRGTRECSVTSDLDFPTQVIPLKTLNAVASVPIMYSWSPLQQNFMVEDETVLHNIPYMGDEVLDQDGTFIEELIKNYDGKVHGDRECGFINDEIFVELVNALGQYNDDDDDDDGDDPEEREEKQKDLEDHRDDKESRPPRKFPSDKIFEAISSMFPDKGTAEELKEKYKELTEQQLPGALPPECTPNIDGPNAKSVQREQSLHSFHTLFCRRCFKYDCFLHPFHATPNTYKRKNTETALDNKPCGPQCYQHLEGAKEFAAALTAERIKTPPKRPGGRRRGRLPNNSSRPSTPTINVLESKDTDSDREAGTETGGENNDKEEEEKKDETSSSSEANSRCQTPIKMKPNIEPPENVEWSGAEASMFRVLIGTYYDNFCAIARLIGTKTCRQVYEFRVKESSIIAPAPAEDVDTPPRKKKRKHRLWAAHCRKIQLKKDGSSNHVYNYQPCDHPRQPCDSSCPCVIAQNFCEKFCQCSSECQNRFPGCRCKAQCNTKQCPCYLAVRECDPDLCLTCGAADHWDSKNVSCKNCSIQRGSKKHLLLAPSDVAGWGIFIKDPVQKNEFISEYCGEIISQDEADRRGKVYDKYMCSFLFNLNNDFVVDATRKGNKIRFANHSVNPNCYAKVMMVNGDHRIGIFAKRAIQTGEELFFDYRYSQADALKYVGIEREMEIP
EZH2 trimeric complex (EZH2:EED:SUZ12), sequence (O75530 whole entry partner): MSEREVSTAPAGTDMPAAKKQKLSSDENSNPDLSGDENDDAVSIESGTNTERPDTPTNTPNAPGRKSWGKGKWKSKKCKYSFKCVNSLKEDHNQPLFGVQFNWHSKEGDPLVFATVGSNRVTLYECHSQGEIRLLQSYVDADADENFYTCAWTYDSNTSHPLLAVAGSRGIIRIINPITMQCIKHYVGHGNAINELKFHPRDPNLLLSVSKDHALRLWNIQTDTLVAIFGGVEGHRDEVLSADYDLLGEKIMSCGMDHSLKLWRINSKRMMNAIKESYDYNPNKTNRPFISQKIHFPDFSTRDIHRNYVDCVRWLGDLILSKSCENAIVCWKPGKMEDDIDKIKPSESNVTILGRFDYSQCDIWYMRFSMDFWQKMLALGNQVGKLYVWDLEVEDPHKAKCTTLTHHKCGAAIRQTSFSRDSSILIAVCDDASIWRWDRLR
EZH2 trimeric complex (EZH2:EED:SUZ12), sequence (Q15022 whole entry partner): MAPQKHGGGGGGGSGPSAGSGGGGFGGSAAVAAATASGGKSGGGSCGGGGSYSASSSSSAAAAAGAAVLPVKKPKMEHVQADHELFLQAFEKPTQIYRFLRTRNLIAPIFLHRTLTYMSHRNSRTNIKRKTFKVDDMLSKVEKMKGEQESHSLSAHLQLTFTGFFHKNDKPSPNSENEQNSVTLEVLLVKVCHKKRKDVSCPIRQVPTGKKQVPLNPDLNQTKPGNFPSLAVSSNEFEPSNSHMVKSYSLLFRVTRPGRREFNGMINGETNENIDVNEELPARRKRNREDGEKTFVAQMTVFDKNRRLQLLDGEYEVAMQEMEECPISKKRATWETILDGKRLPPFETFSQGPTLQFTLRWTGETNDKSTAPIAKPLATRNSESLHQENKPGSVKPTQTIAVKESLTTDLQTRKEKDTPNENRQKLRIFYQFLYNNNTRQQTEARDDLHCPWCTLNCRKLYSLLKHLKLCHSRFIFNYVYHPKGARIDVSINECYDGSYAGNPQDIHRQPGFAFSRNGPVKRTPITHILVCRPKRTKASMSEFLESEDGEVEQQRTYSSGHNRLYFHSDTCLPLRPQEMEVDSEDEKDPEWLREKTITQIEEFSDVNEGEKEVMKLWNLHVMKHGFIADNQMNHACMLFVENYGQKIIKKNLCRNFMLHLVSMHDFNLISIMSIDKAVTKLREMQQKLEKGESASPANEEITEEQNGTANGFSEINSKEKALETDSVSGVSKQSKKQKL

EZH1 pentameric complex (EZH1:EED:SUZ12:RBBP4:AEBP2), sequence (Q92800 whole entry): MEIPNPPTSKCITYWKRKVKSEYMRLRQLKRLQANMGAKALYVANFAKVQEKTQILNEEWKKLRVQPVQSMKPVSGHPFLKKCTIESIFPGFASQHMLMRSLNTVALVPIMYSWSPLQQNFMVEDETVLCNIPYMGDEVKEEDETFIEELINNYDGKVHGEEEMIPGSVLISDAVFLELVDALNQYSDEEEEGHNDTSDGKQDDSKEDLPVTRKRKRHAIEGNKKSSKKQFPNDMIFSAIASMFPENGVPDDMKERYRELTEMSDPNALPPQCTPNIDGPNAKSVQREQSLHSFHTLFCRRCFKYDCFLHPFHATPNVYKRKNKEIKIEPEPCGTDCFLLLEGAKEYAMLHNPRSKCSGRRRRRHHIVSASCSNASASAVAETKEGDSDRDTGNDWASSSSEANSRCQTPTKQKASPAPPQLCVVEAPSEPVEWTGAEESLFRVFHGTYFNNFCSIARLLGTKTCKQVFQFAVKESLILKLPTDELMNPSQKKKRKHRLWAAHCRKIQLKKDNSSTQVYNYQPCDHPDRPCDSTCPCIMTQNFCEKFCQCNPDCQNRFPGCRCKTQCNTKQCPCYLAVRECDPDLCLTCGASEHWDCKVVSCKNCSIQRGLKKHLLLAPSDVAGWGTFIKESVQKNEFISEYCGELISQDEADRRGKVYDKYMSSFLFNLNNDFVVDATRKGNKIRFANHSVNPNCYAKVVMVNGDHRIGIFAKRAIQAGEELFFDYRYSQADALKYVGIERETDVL
EZH1 pentameric complex (EZH1:EED:SUZ12:RBBP4:AEBP2), sequence (O75530 whole entry partner): as the sequence (O75530 whole entry partner) above
EZH1 pentameric complex (EZH1:EED:SUZ12:RBBP4:AEBP2), sequence (Q15022 whole entry partner): as the sequence (Q15022 whole entry partner) above
EZH1 pentameric complex (EZH1:EED:SUZ12:RBBP4:AEBP2), sequence (Q09028 whole entry partner): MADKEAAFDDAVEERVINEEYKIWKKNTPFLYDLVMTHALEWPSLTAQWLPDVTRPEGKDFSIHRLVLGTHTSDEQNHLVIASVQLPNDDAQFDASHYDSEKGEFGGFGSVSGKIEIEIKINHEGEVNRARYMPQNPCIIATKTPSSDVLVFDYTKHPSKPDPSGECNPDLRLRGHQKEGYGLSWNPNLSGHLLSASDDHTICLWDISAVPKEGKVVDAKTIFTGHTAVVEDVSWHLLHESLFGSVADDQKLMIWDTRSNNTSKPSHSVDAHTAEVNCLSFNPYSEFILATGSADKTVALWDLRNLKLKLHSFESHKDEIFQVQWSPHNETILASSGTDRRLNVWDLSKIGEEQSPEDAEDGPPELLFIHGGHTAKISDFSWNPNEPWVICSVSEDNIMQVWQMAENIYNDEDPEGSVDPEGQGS
EZH1 pentameric complex (EZH1:EED:SUZ12:RBBP4:AEBP2), sequence (Q6ZN18 whole entry partner): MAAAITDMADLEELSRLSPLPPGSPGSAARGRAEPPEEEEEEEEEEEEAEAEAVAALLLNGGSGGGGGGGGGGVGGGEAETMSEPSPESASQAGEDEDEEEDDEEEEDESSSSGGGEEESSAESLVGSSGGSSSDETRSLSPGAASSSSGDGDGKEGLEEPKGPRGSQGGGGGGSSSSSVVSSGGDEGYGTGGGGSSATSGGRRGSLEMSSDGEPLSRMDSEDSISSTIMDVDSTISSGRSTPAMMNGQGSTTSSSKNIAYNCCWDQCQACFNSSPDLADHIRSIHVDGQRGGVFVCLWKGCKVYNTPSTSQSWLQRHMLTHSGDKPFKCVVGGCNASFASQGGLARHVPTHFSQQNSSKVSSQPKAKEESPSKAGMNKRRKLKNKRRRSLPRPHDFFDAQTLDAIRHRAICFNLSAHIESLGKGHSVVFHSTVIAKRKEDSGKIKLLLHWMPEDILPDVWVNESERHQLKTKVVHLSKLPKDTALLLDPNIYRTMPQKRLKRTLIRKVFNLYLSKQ

SMILES | selectivity for EZH2 over EZH1 (EZH2) [fold] | inhibitory activity against EZH1, in words [1] | inhibitory activity against EZH2, in words [2] | further results
Cc1cc(C)c(CNC(=O)c2cc(-c3ccc(CN4CCOCC4)cc3)cc3c2cnn3C2CCCC2)c(=O)[nH]1 [Compound 1, EPZ005687] | 50 | – | – | –
CC[C@H](C)n1cc(C)c2c(C(=O)NCc3c(C)cc(C)[nH]c3=O)cc(-c3ccc(N4CCNCC4)nc3)cc21 [Compound 2, GSK126] | 150 | – | – | –
CCCc1cc(C)[nH]c(=O)c1CNC(=O)c1cc(-c2ccnc(N3CCN(C)CC3)c2)cc2c1cnn2C(C)C [Compound 3, GSK343] | 60 | – | – | –
CCC(CC)n1ccc2c(C(=O)NCc3c(C)cc(C)[nH]c3=O)cc(C#N)cc21 [Compound 4, EI1] | 140 | – | – | –
CCCc1cc(C)[nH]c(=O)c1CNC(=O)c1cc(-c2ccc(N3CCN(C(C)C)CC3)nc2)cc2c1cnn2C(C)C [Compound 5, UNC1999] | – | – | – | IC50 (EZH2; read-out: IC50 EZH2, previously reported): < 0.01 µM
COc1cc(C)[nH]c(=O)c1CNC(=O)c1c(C)n([C@H](C)C2CCOCC2)c2ccccc12 [Compound 8, CPI-360] | 100 | – | – | –
CCN(c1cc(-c2ccc(N3CCN(C)CC3)nc2)cc(C(=O)NCc2c3c(c(C)[nH]c2=O)CCCC3)c1C)C1CCOCC1 [Compound 10, ZLD1039] | 12 | – | – | –
CCCc1cc(C)[nH]c(=O)c1CNC(=O)c1cccn2c(-c3ccc(N4CCN(C(C)C)CC4)nc3)cnc12 [Compound 48, 3-(6-(4-Isopropylpiperazin-1-yl)pyridin-3-yl)-N-((6-methyl-2-oxo-4-propyl-1,2-dihydropyridin-3-yl)methyl)imidazo[1,2-a]pyridine-8-carboxamide] | – | did not display any inhibitory activity | did not display any inhibitory activity | –
CCCc1cc(C)[nH]c(=O)c1CNC(=O)c1cnn2c(-c3ccc(N4CCN(C(C)C)CC4)nc3)cccc12 [Compound 49, 7-(6-(4-Isopropylpiperazin-1-yl)pyridin-3-yl)-N-((6-methyl-2-oxo-4-propyl-1,2-dihydropyridin-3-yl)methyl)pyrazolo[1,5-a]pyridine-3-carboxamide] | – | did not display any inhibitory activity | did not display any inhibitory activity | –
CCCc1cc(C)[nH]c(=O)c1CNC(=O)c1cn2ccc(-c3ccc(N4CCN(C(C)C)CC4)nc3)cc2n1 [Compound 50, 7-(6-(4-Isopropylpiperazin-1-yl)pyridin-3-yl)-N-((6-methyl-2-oxo-4-propyl-1,2-dihydropyridin-3-yl)methyl)imidazo[1,2-a]pyridine-2-carboxamide] | – | inactive | inactive | –
CCCc1cc(C)[nH]c(=O)c1CNC(=O)c1cc(-c2ccc(N3CCN(C(C)C)CC3)nc2)cc2c1cnn2C [Compound 55, 6-(6-(4-Isopropylpiperazin-1-yl)pyridin-3-yl)-1-methyl-N-((6-methyl-2-oxo-4-propyl-1,2-dihydropyridin-3-yl)methyl)-1H-inda-zole-4-carboxamide] | – | did not have appreciable inhibitory activity | – | fold loss of potency for EZH2 [2]: 10–20 fold
CCCc1cc(C)[nH]c(=O)c1CNC(=O)c1cc(-c2ccc(N3CCN(C(C)C)CC3)nc2)cc2c1cnn2C1CCCCCC1 [Compound 56, 1-Cycloheptyl-6-(6-(4-isopropylpiperazin-1-yl)pyridin-3-yl)-N-((6-methyl-2-oxo-4-propyl-1,2-dihydropyridin-3-yl)methyl)-1H-inda-zole-4-carboxamide] | – | did not have appreciable inhibitory activity | – | fold loss of potency for EZH2 [2]: 10–20 fold
CCCc1cc(C)[nH]c(=O)c1CNC(=O)c1cc(-c2ccc(N3CCN(CC)CC3)nc2)cc2c1cnn2C(C)C [Compound 64] | – | did not affect the potency | did not affect the potency | –
CCCc1cc(C)[nH]c(=O)c1CNC(=O)c1cc(-c2ccc(N3CCNCC3)nc2)cc2c1cnn2C(C)C [Compound 65] | – | did not affect the potency | did not affect the potency | –
